# Data published in patent US11564911B2, “Small molecule dual-inhibitors of TRPV4 and TRPA1 for sanitizing and anesthetizing” (Duke University, priority 2016, dated 2023).
# Legend:
# [1] = Compound concentration in tissues/organs and plasma by LC-MS/MS after i.p. injection; format: in vivo, mouse; settings: 10 mg/kg i.p.; for compound concentration in liver and kidney / compound concentration in plasma / concentration at 1 h: 1 h; for concentration at 1 h: mouse, heart, brain, brainstem, trigeminal ganglion, skin, intraperitoneal
# Protocol: Mice were treated with 10 mg/kg i.p. of the respective inhibitor. Post-euthanasia harvested tissue was frozen in liquid nitrogen and stored at −80° C. for further analysis.
# Frozen tissue samples were partially thawed and cut into 1 mm slices, 5-15 mg tissue, 2-fold excess water (mass/vol.), 6-fold excess acetonitrile (16- . . . compounds) or methanol (GSK205) containing appropriate amount of internal standard, and 2.5 mm zirconia/silica bead (Biospec Products Inc.) were added to 500-μL polypropyl-ene (PP) conical tube, homogenized in a Fast-Prep apparatus (Thermo-Savant) at speed “4” for 20 sec at room temp, and centrifuged at 13,600 g for 5 min at room temp. Depending on the expected concentration range of the measured compound, the supernatant was diluted 1/4-1/20 (in Mobile phase A, see below) and placed in autosampler for LC-MS/MS analysis.
# The LC-MS/MS assay for 16- . . . compounds and GSK205 was developed on an Agilent 1200 series LC system interfaced with Applied Biosystems API 5500QTrap, a hybrid triple quadruple-linear trap MS/MS spectrometer.
# Analyst (version 1.6.1) software was used for mass parameters tuning, data acquisition, and quantification. LC column: 3×4 mm RP C18 (Phenomenex, AJ0-4287) was operated at 35° C. Mobile phase A: 0.1% formic acid, 2% acetonitrile, in LC/MS-grade water; mobile phase B: acetonitrile; flow rate: 1 mL/min, 1:1 MS/MS:waste split. Run time was 4 min. Diverter valve was used to send flow to MS/MS only between 1.2 and 2.5 min. The elution gradi-ent was: 0-0.5 min, 1% B; 0.5-1.2 min, 1-95% B; 1.2-1.5 min, 95% B; 1.5-1.6 min, 95-1% B. Autosampler was oper-ated at 4° C.; injection volume was kept at 10-50 μL. Electrospray ionization (ESI) source parameters were: positive ionization mode, curtain gas flow=30, ionization potential=5500 V, temperature=500° C., nebulizing gas 1 flow=30, nebulizing gas 2=30, declustering potential=20 V. 16- . . . compounds and GSK205 were individually infused as 100 nM solutions in 50% A/50% B at 10 μL/min flow rate and parameters optimized to provide maximal ion count for “parent” and collision-produced (“daughter”) MS/MS ions. Parent/daughter quantifier [qualifier] ions utilized: GSK205 (401.1/280[370]), 16-8 (400.1/279.1[91.1], 16-16 (387.1/280[105]), 16-18 (415.2/280[370], 16-19 (414.1/279.2[91.1]. Standard (analyte of interest)/internal standard pairs utilized: GSK205/16-16, 16-8/16-16, 16-18/GSK205, 16-19/16-8.
# Calibration samples (n=6) were prepared by adding pure standard of the measured compound to tissue homogenate (tissue+2-fold excess water, mass/vol) in the appropriate range needed for the particular dosing regime. Organs studied were analyzed alongside the study samples. The following are typical ranges used (the lower value representing also the LLOQ at 80% accuracy limit, all other calibrator levels at 85% accuracy limit): 0.38-6 nM (plasma), 6-100 nM (skin), 6-48 nM (heart), 7.5-120 nM (brain), 19-300 or 1500-24000 nM (liver), 56-900 or 1500-12000 nM (kidney), 500-8000 nM (fat). Peak integration, calibration, and quantification was performed within Analyst software. The response of the peak area standard/int. std. to nominal concentration was linear with r=0.999 or better.
# [2] = tested on: mice, UVB-exposed hind paws; assay: UVB-overexposure evoked nocifensive behavior, topical compound; format: in vivo, mouse; settings: 0.5 mM in 40 μL
# Protocol: Compounds were tested for their effect on nocifensive behavior (response to pain) following UVB overexposure. Behavioral tests were performed to evaluate the decrease in withdrawal thresholds in response to mechanical von Frey hair or thermal stimuli applied to hind paws. The Von-Frey apparatus (Ugo Basile) applied a mechanical stimulus with a flexible steel wire from underneath the hind paw. The force leading to withdrawal was determined. For the thermal stimuli test, paws were stimulated with heat from underneath applied by an infrared beam (Hargreave's test apparatus; Ugo Basile), and withdrawal latencies were recorded. The withdrawal thresholds were ascertained before and after UV exposure. Mice were exposed to UVB 3-5 days after the last application of tam/oil, using a Bio-Rad Gel Doc 2000 UV transilluminator (302 nm) for 5 min with an exposure of 600 mJ/cm^2. This represents 5-10 times the minimal erythema-inducing dose, in keeping with the rationale of inducing sunburn and studying sunburn-evoked pain.
Compound,concentration in fat and pancreas after one hour [1],compound concentration in liver and kidney [1],compound concentration in plasma [1],concentration at 1 h [1],response to pain following UVB exposure [2],concentration at the 6 h time-point compared to the 1 h time-point ([1]; several organs),concentration at the 24 h time-point ([1]; several organs)
CN(CCc1ccc(Nc2nc(-c3ccccc3)cs2)cc1)Cc1ccccc1 [Compound 16-8],above its IC50,micromolar/submicromolar,virtually undetectable,< 100 nM,especially effective,–,–
CCN(CCc1ccc(Nc2nc(-c3ccccc3)cs2)cc1)Cc1ccccc1 [Compound 16-19],–,micromolar/submicromolar,virtually undetectable,< 100 nM,–,10-20 fold,lower than at the 6 h but higher than at the 1 h time-point
CN(CCc1ccc(Nc2nc(-c3cccnc3)cs2)cc1)Cc1ccccc1 [GSK205],–,–,–,–,as effective as vehicle,–,–
